In patent publication US20070004660A1, “Synergistic Modulation of Flt3 Kinase Using Alkylquinolines and Alkylquinazolines” (priority 2005, published 2007):
Like-named read-outs stand apart in the source and are kept apart here.

Assays:
MV4-11 tumor xenografts = conditions: for reduction of final tumor weight compared to vehicle-treated group / tumor regression, decrease versus starting mean tumor volume on Day 1: 11 days; for decrease of mean tumor volume compared to vehicle-treated group: Day 11
Protocol: The oral anti-tumor efficacy of a subset of the compounds of the invention was evaluated in vivo using a nude mouse MV4-11 human tumor xenograft regression model.

FLT3 = FLT3 phosphorylation in MV4-11 tumors from treated mice (immunoblot); format: in vivo, human; conditions: single dose 100 mg/kg po, tumors harvested 2 hours later
Protocol: To establish further that FLT3 inhibitors of Formula I′ reached the expected target in tumor tissue, the level of FLT3 phosphorylation in tumor tissue obtained from vehicle- and compound-treated mice was measured. Results for FLT3 inhibitor Compound B (Compound 73 of Formula I′) and FLT3 inhibitor Compound C (Compound 74 of Formula I′) are shown in FIG. 3 and FIG. 4, respectively. For this pharmacodynamic study, a sub-set of 10 mice from the vehicle-treated control group were randomized into two groups of 5 mice each and then treated with another dose of vehicle or compound (100 mg/kg, po). Tumors were harvested 2 hours later and snap frozen for assessment of FLT3 phosphorylation by immunobloting.
Harvested tumors were processed for immunoblot analysis of FLT3 phosphorylation in the following manner: 100 mg of tumor tissue was dounce homogenized in lysis buffer (50 mM Hepes, 150 mM NaCl, 10% Glycerol, 1% Triton-X-100, 10 mM NaF, 1 mM EDTA, 1.5 mM MgCl2, 10 mM NaPyrophosphate) supplemented with phosphatase (Sigma Cat# P2850) and protease inhibitors (Sigma Cat #P8340). Insoluble debris was removed by centrifugation at 1000×g for 5 minutes at 4° C. Cleared lysates ([…] of total potein at 10 mg/ml in lysis buffer) were incubated with 10 μg of agarose conjugated anti-FLT3 antibody, clone C-20 (Santa Cruz cat # sc-479ac), for 2 hours at 4° C. with gentle agitation. […]

MV4-11 AML cells = experiment: Cell proliferation assay, single agents and FTI/FLT3 inhibitor combinations, MV4-11; format: cell-based, human; conditions: Homo sapiens, MV4-11; proliferation; FLT3 inhibitor alone or, in combination lines, in the combination
Protocol: Dose responses for the individual compounds alone were determined for each cell line using a standard 72-hour cell proliferation assay (see FIGS. 6.1-6.8). The standard chemotherapeutic agent Cytarabine was used as a control cytotoxic agent in all experiments. […] The FLT3 inhibitors, Compounds A, B, C, D, E, F G and H individually have good potency (sub-micromolar) for the inhibition of FLT3 driven proliferation (compared to the first line cytotoxic agent Cytarabine and Tipifarnib) in cells that depend on FLT3 for growth. Each of these chemically distinct compounds alone has potential for the treatment of disorders related to FLT3, such as FLT3 positive AML. […] The FLT3 inhibitors tested had no effect on THP-1 proliferation. […] (See FIGS. 10.1-10.8 and Tables 1-3, hereafter.)
To statistically evaluate the synergy of a FLT3 inhibitor and an FTI in FLT3 dependent cell lines, dosing combinations were evaluated by the method of Chou and Talalay. See Chou T C, Talalay P. (1984) “Quantitative analysis of dose-effect relationships: the combined effects of multiple drugs or enzyme inhibitors.” Adv Enzyme Regul. 22:27-55. […] Using this method, multiple FTI and FLT3 combinations were evaluated. […]
Cell proliferation assay for MV4-11, Baf3-ITD, Baf3-FLT3 and THP-1 cells. […] Total cell growth is quantified as the difference in luminescent counts (relative light units, RLU) of cell number at Day 0 compared to total cell number at Day 3 (72 hours of growth and/or compound treatment). One hundred percent inhibition of growth is defined as an RLU equivalent to the Day 0 reading. […]
Combination Index Analysis. To determine growth inhibition synergy of a FTI and FLT3 inhibitor combination based on the method of Chou and Talalay (Chou and Talalay. See Chou T C, Talalay P. (1984) “Quantitative analysis of dose-effect relationships: the combined effects of multiple drugs or enzyme inhibitors.” Adv Enzyme Regul. 22:27-55. ), fixed ratio combination dosing with isobolar statistical analysis was performed. […]

MV-4-11 tumor xenografts = experiment: In vivo combination study, FLT3 inhibitor Compound B and Tipifarnib, MV-4-11 xenografts; conditions: for effect on tumor growth compared to Vehicle-treated group: nine days
Protocol: The effect of combination treatment of the FLT3 Inhibitor FLT3 inhibitors of Formula I′ and Tipifarnib (Zarnestra™) on the growth of MV-4-11 human AML tumor xenografts in nude mice was tested using FLT3 inhibitor Compound B. The in vivo study was designed to extend the in vitro observations to evaluate the potential for a synergistic anti-tumor effect of FLT3 inhibitor Compound B administered orally together with Tipifarnib to nude mice bearing established MV-4-11 tumor xenografts.

CN1CCN(CCCOc2ccc3c(C4CCN(C(=O)Nc5ccc(N6CCOCC6)cc5)CC4)ncnc3c2)CC1 [FLT3 inhibitor Compound B, 4-{7-[3-(4-Methyl-piperazin-1-yl)-propoxy]-quinazolin-4-yl}-piperidine-1-carboxylic acid (4-morpholin-4-yl-phenyl)-amide]
reduction of final tumor weight compared to vehicle-treated group (MV4-11 tumor xenografts; 10 mg/kg b.i.d. po): 48%
decrease of mean tumor volume compared to vehicle-treated group (MV4-11 tumor xenografts; 10 mg/kg b.i.d. po): 44%
reduction of final tumor weight compared to vehicle-treated group (MV4-11 tumor xenografts; 30 mg/kg b.i.d. po): 85%
tumor regression, decrease versus starting mean tumor volume on Day 1 (MV4-11 tumor xenografts; 30 mg/kg b.i.d. po): 42%
decrease of mean tumor volume compared to vehicle-treated group (MV4-11 tumor xenografts; 30 mg/kg b.i.d. po): 84%
reduction of final tumor weight compared to vehicle-treated group (MV4-11 tumor xenografts; 100 mg/kg b.i.d. po): 99%
tumor regression, decrease versus starting mean tumor volume on Day 1 (MV4-11 tumor xenografts; 100 mg/kg b.i.d. po): 77%
decrease of mean tumor volume compared to vehicle-treated group (MV4-11 tumor xenografts; 100 mg/kg b.i.d. po): 94%
level of FLT3 phosphorylation in MV4-11 tumors versus vehicle (FLT3): biologically significant reduction
IC50 (MV4-11 AML cells): 31.3 nM
effect on tumor growth compared to Vehicle-treated group (MV-4-11 tumor xenografts; 10 mg/kg bid po): marginal significant inhibition of tumor growth
effect on tumor growth compared to Vehicle-treated group (MV-4-11 tumor xenografts; 20 mg/kg bid po): tumor growth stasis
overt toxicity (MV-4-11 tumor xenografts; 9-day treatment, either agent alone or in combination): No overt toxicity
